Common to all, as to type: physicochemical
Data set [1] is described as follows: Solubility in acrylic acid. The note with it: 1.39 g in 10.5 g of acrylic acid. Here is the method:
The solubility of the monomer reaction product of Monomer Example 2 in acrylic acid was measured in the following manner. 10 g of acrylic acid was taken and the dried monomer reaction product of Monomer Example 2 was added in 0.2 g aliquots. The Monomer Example 2 reaction product started to become insoluble after 1.39 g was added. Next, 0.5 g of acrylic acid was added to form a clear solution. The final solution had 1.39 g of reaction product of Example 2 in 10.5 g of acrylic acid. The weight of reaction product of Example 2 was 11.7% of the total solution weight.

Data set [2] is described as follows: LC/FLD and GC/MS fluorescence of monomer species. The following applies: for excitation maximum: at the emission maximum; for emission maximum: zero order excitation. Here is the method: The sample of this example was initially analyzed by LC/MS to identify the retention times of target peaks. The same sample was then analyzed using similar, but weaker LC conditions by LC/FLD. The first step was to collect emission spectra with zero order excitation, this allows determining the emission maximum, which was 410 nm for the N-allyl-4-propoxy-1,8-naphthalimide and 450 nm for the N-allyl-4,5-dipropoxy-1,8-naphthalimide species.
The next step was to collect excitation spectra at the emission maximum for each compound. This allows determining the individual excitation maximum, which was 375 nm and 395 nm for the N-allyl-4-propoxy-1,8-naphthalimide and the N-allyl-4,5-dipropoxy-1,8-naphthalimide species respectively. The final step is to collect a chromatogram at the individual excitation and emission maxima. The latter two steps are each done with time programming the wavelengths, so each only require a single chromatogram.
Then the sample was analyzed by GC/MS to estimate the actual concentrations of the two components of interest. The ratio of the area percent by fluorescence and mass spec is the estimated relative fluorescence intensity. […] This assumes that the GC/MS area percent is the actual weight percent, which should be a close approximation.

The nature of another data set: Solubility in water. Here is the method: The procedure of Example 4 in RU2640339 was repeated. An initial charge of 84 g of deionized water and 1 g of ammonium persulfate was placed in a 250 ml glass reactor with inlet ports for an agitator, water cooled condenser, thermocouple. 15 g of acrylic acid (0.208 moles, 99.73 mole percent of polymer) was weighed into a beaker and then 0.15 g of N-allyl-4-methoxy-1,8-naphthalimide (Monomer Example 2, formula weight 267, 0.00056 moles, […] of polymer) was added to the beaker and mixed until the powdered fluorescent monomer dissolved. This solution was then added to the reactor, with stirring. The reaction mixture was very cloudy, indicating insolubility of the N-allyl-4-methoxy-1,8-naphthalimide in the reaction mixture. The reactor contents were slowly heated to 85° C. When the temperature reached about 80° C., a strong exotherm was observed. The reaction mixture started to thicken and within minutes, a sticky, intractable mass was formed and started to rise up the stir shaft. An attempt was made to remove some of the reaction product from the reactor and try and dissolve it in water.

Each structure is given as a SMILES string.

Turning to `C=CCN1C(=O)c2cccc3c(OC)ccc(c23)C1=O` [Monomer Example 2, N-allyl-4-methoxy-1,8-naphthalimide], in data set [1], the “solubility in acrylic acid (weight of reaction product in clear solution)” value is 11.7 % of the total solution weight.
In data set [2], `C=CCN1C(=O)c2cccc3c(OCCC)ccc(c23)C1=O` [Monomer Example 3, N-allyl-4-propoxy-1,8-naphthalimide] gave an excitation maximum of 375 nm and an emission maximum of 410 nm.
As for `C=CCOc1ccc2c3c(cccc13)C(=O)N(CCC)C2=O` [Monomer Example 4, N-propyl-4-allyloxy-1,8-naphthalimide], the “solubility in water (in words)” value in the data set “Solubility in water” is recorded as “insolubility”.
With `C=CCN1C(=O)c2cccc3c(OCCOCCOCCOC)ccc(c23)C1=O` [Monomer Example 5, N-allyl-4-(methoxy, triethylene glycol) 1,8-naphthalimide], the solubility in water result in “Solubility in water” (25° C., pH 7) is on record as “less than 0.1 grams per 100 mis of water”.
In data set [2], `C=CCN1C(=O)c2ccc(OCCC)c3c(OCCC)ccc(c23)C1=O` [N-allyl-4,5-dipropoxy-1,8-naphthalimide] registered an excitation maximum of 395 nm and an emission maximum of 450 nm.
